Test results reported in US8207176B2 (Glaxo Group Limited, priority 2005, dated 2012).
Entries after “also recorded” stand apart in the source; their conditions may differ. Structures can show the parent of a compound that is named as a salt.

Tested on: influx of neutrophils to the lung in LPS-challenged rats
Test: Rat LPS neutrophilia model
Format: in vivo
Conditions: intratracheal, LPS aerosol 100 ug/ml 15 min, lavage 4 hours later, in at least one of the range of conditions tested, significant p<0.05, nonsignificant p>0.05
Experimental: The effect of compounds on the influx of neutrophils to the lung in LPS-challenged rats is evaluated as follows. The test compound is suspended in one of the following solutions: 0.5% tween 80/PBS, 0.5% tween 80/saline, 10% EtOH/saline (with pH adjusted to 2.0, or 8.0 with HCl, or unadjusted), Saline @ pH 2.0, 6.5 or 8.0, 0.5% Tragacanth, 1% DMSO/20% Encapsin/Saline, or acidified 5% Tragacanth. The suspension process may be aided by the use of a glass homogenizer. For intratracheal administration, the animals are anesthetized with inhaled isoflurane and placed in a supine position, the trachea is intubated with a steel gavage needle (1.5 inch, 22 gauge, small ball) or a Penn-Century Microsprayer Aerosolizer (model IA-IB) and 200 ul of dosing solution is delivered. The animals are visually monitored during the recovery process, which typically occurs within two minutes. It is noted that the test compounds may be alternatively administered via the microsprayer in a dry powder blend with a suitable excipient, such as lactose.
Rats treated with compound or vehicle (15 min-24 hours pretreatment) are exposed to an LPS aerosol (100 ug/ml) for 15 min. Four hours later the rats are euthanized with pentobarbital (100 mg/kg, i.p.) and the airways are lavaged with 5 washes of 5 ml of phosphate buffered saline. The harvested cells are stained (Diffquick) and counted to determine total and differential cell data. […] Inhibition of neutrophil levels relative to no compound controls is calculated based on the differential counts.
The data is obtained as % inhibition using a particular concentration and pretreat time.

| SMILES | inhibition of neutrophilia (neutrophil levels in lung lavage relative to no compound controls) |
| --- | --- |
| Cc1ccc(C(=O)Nc2nccs2)cc1-c1nc(NCCCNC(C)C)nc2c1ccc(=O)n2-c1c(F)cccc1F [Example 101, 3-[8-(2,6-difluorophenyl)-2-({3-[(1-methylethyl)amino]propyl}amino)-7-oxo-7,8-dihydropyrido[2,3-d]pyrimidin-4-yl]-4-methyl-N-1,3-thiazol-2-ylbenzamide] | statistically significant inhibition |
| Cc1ccc(C(=O)Nc2nccs2)cc1-c1nc(NCCCNC(C)(C)C)nc2c1ccc(=O)n2-c1c(F)cccc1F [Example 102, 3-[8-(2,6-difluorophenyl)-2-({3-[(1,1-dimethylethyl)amino]propyl}amino)-7-oxo-7,8-dihydropyrido[2,3-d]pyrimidin-4-yl]-4-methyl-N-1,3-thiazol-2-ylbenzamide] | statistically nonsignificant inhibition |
| Cc1ccc(C(=O)Nc2nccs2)cc1-c1nc(NCCNC(C)C)nc2c1ccc(=O)n2-c1c(F)cccc1F [Example 103, 3-[8-(2,6-difluorophenyl)-2-({2-[(1-methylethyl)amino]ethyl}amino)-7-oxo-7,8-dihydropyrido[2,3-d]pyrimidin-4-yl]-4-methyl-N-1,3-thiazol-2-ylbenzamide] | statistically significant inhibition |
| Cc1ccc(C(=O)Nc2nccs2)cc1-c1nc(N(C)CCCN(C)C)nc2c1ccc(=O)n2-c1c(F)cccc1F [Example 107, 3-{8-(2,6-difluorophenyl)-2-[[3-(dimethylamino)propyl](methyl)amino]-7-oxo-7,8-dihydropyrido[2,3-d]pyrimidin-4-yl}-4-methyl-N-1,3-thiazol-2-ylbenzamide] | statistically significant inhibition |
| Cc1ccc(C(=O)Nc2ccc(F)cc2)cc1-c1nc(N(C)CCCN(C)C)nc2c1ccc(=O)n2-c1c(F)cccc1F [Example 115, 3-{8-(2,6-difluorophenyl)-2-[[3-(dimethylamino)propyl](methyl)amino]-7-oxo-7,8-dihydropyrido[2,3-d]pyrimidin-4-yl}-N-(4-fluorophenyl)-4-methylbenzamide] | statistically nonsignificant inhibition |
| CCN(CC)CCCNc1nc(-c2cc(C(=O)NC)ccc2C)c2ccc(=O)n(-c3c(F)cccc3F)c2n1 [Example 119, 3-[2-{[3-(diethylamino)propyl]amino}-8-(2,6-difluorophenyl)-7-oxo-7,8-dihydropyrido[2,3-d]pyrimidin-4-yl]-N,4-dimethylbenzamide] | statistically significant inhibition |
| CCN(CC)CCCNc1nc(-c2cc(C(=O)N(C)C)ccc2C)c2ccc(=O)n(-c3c(F)cccc3F)c2n1 [Example 120, 3-[2-{[3-(diethylamino)-propyl]amino}-8-(2,6-difluorophenyl)-7-oxo-7,8-dihydropyrido[2,3-d]-pyrimidin-4-yl]-N,N,4-trimethylbenzamide] | statistically nonsignificant inhibition; also recorded: inactive |
| CCN(CC)CCCNc1nc(-c2cc(C(=O)N[C@H](C)C(C)C)ccc2C)c2ccc(=O)n(-c3c(F)cccc3F)c2n1 [Example 130] | statistically nonsignificant inhibition |
| CCN(CC)CCCNc1nc(-c2cc(C(=O)NCC3CCCC3)ccc2C)c2ccc(=O)n(-c3c(F)cccc3F)c2n1 [Example 132, N-(cyclopentylmethyl)-3-[2-{[3-(diethylamino)propyl]amino}-8-(2,6-difluorophenyl)-7-oxo-7,8-dihydropyrido[2,3-d]pyrimidin-4-yl]-4-methylbenzamidetrifluoroacetate] | statistically nonsignificant inhibition |
| CCN(CC)CCCNc1nc(-c2cc(C(=O)NCCF)ccc2C)c2ccc(=O)n(-c3c(F)cccc3F)c2n1 [Example 133, 3-[2-{[3-(diethylamino)propyl]amino}-8-(2,6-difluorophenyl)-7-oxo-7,8-dihydropyrido[2,3-d]pyrimidin-4-yl]-N-(2-fluoroethyl)-4-methylbenzamidetrifluoroacetate] | statistically significant inhibition |
| CCN(CC)CCCNc1nc(-c2cc(C(=O)NCCOC)ccc2C)c2ccc(=O)n(-c3c(F)cccc3F)c2n1 [Example 134, 3-[2-{[3-(diethylamino)propyl]amino-}8(2,6-difluorophenyl)-7-oxo-7,8-dihydropyrido[2,3-d]pyrimidin-4-yl]-4-methyl-N-[2-(methyloxy)ethyl]benzamidetrifluoroacetate] | statistically nonsignificant inhibition |
| CCN(CC)CCCNc1nc(-c2cc(C(=O)NCC3CCCCC3)ccc2C)c2ccc(=O)n(-c3c(F)cccc3F)c2n1 [Example 135, N-(cyclohexylmethyl)-3-[2-{[3-(diethylamino)propyl]amino}-8-(2,6-difluorophenyl)-7-oxo-7,8-dihydropyrido[2,3-d]pyrimidin-4-yl]-4-methylbenzamidetrifluoroacetate] | inactive |
| CCN(CC)CCCNc1nc(-c2cc(C(=O)NC3CCC3)ccc2C)c2ccc(=O)n(-c3c(F)cccc3F)c2n1 [Example 137, N-cyclobutyl-3-[2-{[3-(diethylamino)propyl]amino}-8-(2,6-difluorophenyl)-7-oxo-7,8-dihydropyrido[2,3-d]pyrimidin-4-yl]-4-methylbenzamide trifluoroacetate] | statistically significant inhibition |
| CCN(CC)CCCNc1nc(-c2cc(C(=O)NCC3CC3)ccc2C)c2ccc(=O)n(-c3c(F)cccc3F)c2n1 [Example 138, N-(cyclopropylmethyl)-3-[2-{[3-(diethylamino)propyl]amino}-8-(2,6-difluorophenyl)-7-oxo-7,8-dihydropyrido[2,3-d]pyridin-4-yl]-4-methylbenzamide trifluoroacetate] | statistically nonsignificant inhibition |
| CCN(CC)CCCNc1nc(-c2cc(C(=O)Nc3ccccc3)ccc2C)c2ccc(=O)n(-c3c(F)cccc3F)c2n1 [Example 147, 3-[2-{[3-(diethylamino)propyl]amino}-8-(2,6-difluorophenyl)-7-oxo-7,8-dihydropyrido[2,3-d]pyrimidin-4-yl]-4-methyl-N-phenylbenzamide] | statistically nonsignificant inhibition |
| CCN(CC)CCCNc1nc(-c2cc(C(=O)N[C@@H](C)c3ccccc3)ccc2C)c2ccc(=O)n(-c3c(F)cccc3F)c2n1 [Example 149, 3-[2-{[3-(diethylamino)propyl]amino}-8-(2,6-difluorophenyl)-7-oxo-7,8-dihydropyrido[2,3-d]pyrimidin-4-yl]-4-methyl-N-[(1S)-1-phenylethyl]benzamide] | inactive |
| CCN(CC)CCCNc1nc(-c2cc(C(=O)Nc3ccc(F)cc3)ccc2C)c2ccc(=O)n(-c3c(F)cccc3F)c2n1 [Example 160, 3-[2-{[3-(diethylamino)propyl]amino}-8-(2,6-difluorophenyl)-7-oxo-7,8-dihydropyrido[2,3-d]pyrimidin-4-yl]-N-(4-fluorophenyl)-4-methylbenzamide] | statistically significant inhibition |
| CCCNC(=O)c1ccc(C)c(-c2nc(N3CCC(N4CCC(C)CC4)CC3)nc3c2ccc(=O)n3-c2c(F)cccc2F)c1 [Example 166, 3-[8-(2,6-difluorophenyl)-2-(4-methyl-1,4′-bipiperidin-1′-yl)-7-oxo-7,8-dihydropyrido[2,3-d]pyrimidin-4-yl]-4-methyl-N-propylbenzamide] | statistically significant inhibition |
| CCCCNC(=O)c1ccc(C)c(-c2nc(N3CCC(N4CCC(C)CC4)CC3)nc3c2ccc(=O)n3-c2c(F)cccc2F)c1 [Example 167, N-butyl-3-[8-(2,6-difluorophenyl)-2-(4-methyl-1,4′-bipiperidin-1′-yl)-7-oxo-7,8-dihydropyrido[2,3-d]pyrimidin-4-yl]-4-methylbenzamide] | statistically significant inhibition |
| Cc1ccc(C(=O)NCC(C)C)cc1-c1nc(N2CCC(N3CCC(C)CC3)CC2)nc2c1ccc(=O)n2-c1c(F)cccc1F [Example 168, 3-[8-(2,6-difluorophenyl)-2-(4-methyl-1,4′-bipiperidin-1′-yl)-7-oxo-7,8-dihydropyrido[2,3-d]pyrimidin-4-yl]-4-methyl-N-(2-methylpropyl)benzamide] | inactive |
| Cc1ccc(C(=O)NC2CCCC2)cc1-c1nc(N2CCC(N3CCC(C)CC3)CC2)nc2c1ccc(=O)n2-c1c(F)cccc1F [Example 169, N-cyclopentyl-3-[8-(2,6-difluorophenyl)-2-(4-methyl-1,4′-bipiperidin-1′-yl)-7-oxo-7,8-dihydropyrido[2,3-d]pyrimidin-4-yl]-4-methylbenzamide] | statistically nonsignificant inhibition |
